The record followed here is PubChem BioAssay AID330 (DTP/NCI, 2004).

The subject of this experiment is P388 leukemia ip, CD2F1 mice, survival T/C. The experiment can be described thus: NCI In Vivo Anticancer Drug Screen. Data for tumor model P388 Leukemia (intraperitoneal) in CD2F1 (CDF1) mice. The conditions noted are these: endpoint: median survival time, higher = longer survival. Put shortly:
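Mice carrying the transplanted tumor received test compound or vehicle. Survival was recorded in each group, and the value is the treated-group measurement divided by that of the vehicle-treated control group.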

Setting [1] is: dose: 25.0 mg/kg/injection, schedule: Q01DX009 (ip), vehicle: saline with Tween-80.
Where [2] appears, read: dose: 50.0 mg/kg/injection, schedule: Q01DX009 (ip), vehicle: saline with Tween-80.
Where [3] appears, read: dose: 100.0 mg/kg/injection, schedule: Q01DX009 (ip), vehicle: saline with Tween-80.
The mark [4] stands for this setting: dose: 25.0 mg/kg/injection, schedule: Q01DX009 (ip), vehicle: saline.
The mark [5] stands for this setting: dose: 50.0 mg/kg/injection, schedule: Q01DX009 (ip), vehicle: saline.
Where [6] appears, read: dose: 100.0 mg/kg/injection, schedule: Q01DX009 (ip), vehicle: saline.
[7] abbreviates: dose: 200.0 mg/kg/injection, schedule: Q01DX009 (ip), vehicle: saline.
Where [8] appears, read: dose: 50.0 mg/kg/injection, schedule: Q01DX005 (ip), vehicle: saline with Tween-80.
[9] abbreviates: dose: 100.0 mg/kg/injection, schedule: Q01DX005 (ip), vehicle: saline with Tween-80.
Setting [10] is: dose: 200.0 mg/kg/injection, schedule: Q01DX005 (ip), vehicle: saline with Tween-80.
Where [11] appears, read: dose: 6.25 mg/kg/injection, schedule: Q01DX009 (ip), vehicle: saline with Tween-80.
The mark [12] stands for this setting: dose: 12.5 mg/kg/injection, schedule: Q01DX009 (ip), vehicle: saline with Tween-80.
Where [13] appears, read: dose: 50.0 mg/kg/injection, schedule: Q01DX009 (ip), vehicle: Klucel (hydroxypropylcellulose) (HPC).
[14] abbreviates: dose: 100.0 mg/kg/injection, schedule: Q01DX009 (ip), vehicle: Klucel (hydroxypropylcellulose) (HPC).
[15] abbreviates: dose: 200.0 mg/kg/injection, schedule: Q01DX009 (ip), vehicle: Klucel (hydroxypropylcellulose) (HPC).
The mark [16] stands for this setting: dose: 60.0 mg/kg/injection, schedule: Q01DX005 (ip), vehicle: saline with Tween-80.
The mark [17] stands for this setting: dose: 120.0 mg/kg/injection, schedule: Q01DX005 (ip), vehicle: saline with Tween-80.
[18] abbreviates: dose: 240.0 mg/kg/injection, schedule: Q01DX005 (ip), vehicle: saline with Tween-80.

Structures are written as SMILES. Values joined by “and” are separate entries in the source; they are usually repeats but may differ in a detail not shown here. Identical values can stand only once. Toxic doses and inconclusive results are not listed.

`N=C(N)c1ccc2nc(/C=C\c3nc4ccc(C(=N)N)cc4[nH]3)[nH]c2c1`: the T/C (dose: 100.0 mg/kg/injection, schedule: Q04DX002 (ip), vehicle: saline) is 110 % of control and the T/C (dose: 200.0 mg/kg/injection, schedule: Q04DX002 (ip), vehicle: saline) was 117 % of control.
As for `Cc1[nH]c(C(=O)NN)c(C)c1C(=O)NN`, the T/C runs as follows: under setting [1], 91 % of control; under setting [2], 95 % of control; under setting [3], 91 % of control.
Take `C[N+]1(C)CCOC(O)(c2ccccc2)C1` (stereo not given): the T/C was 104 % of control (dose: 6.25 mg/kg/injection, schedule: Q01DX009 (ip), vehicle: saline); 98 % of control (dose: 12.5 mg/kg/injection, schedule: Q01DX009 (ip), vehicle: saline); 100 % of control under setting [4].
`Clc1cccc2c(SCCCCCCCSc3c4ccccc4nc4c(Cl)cccc34)c3ccccc3nc12`: the T/C runs as follows: (dose: 60.0 mg/kg/injection, schedule: Q01DX005 (ip), vehicle: Klucel (hydroxypropylcellulose) (HPC)) 93 % of control; (dose: 120.0 mg/kg/injection, schedule: Q01DX005 (ip), vehicle: Klucel (hydroxypropylcellulose) (HPC)) 91 % of control; (dose: 240.0 mg/kg/injection, schedule: Q01DX005 (ip), vehicle: Klucel (hydroxypropylcellulose) (HPC)) 90 % of control.
As to `COc1cc2c(c3c1C(=O)c1c(cc4c(c1O)C(OC)CC(C)(O)C4)C3=O)OC1OC2(C)C(O)C(N(C)C)C1O` (stereo not given), the T/C is, setting by setting: (dose: 1.25 mg/kg/injection, schedule: Q01DX009 (ip), vehicle: other) 117 % of control; (dose: 2.5 mg/kg/injection, schedule: Q01DX009 (ip), vehicle: other) 98 % of control; (dose: 5.0 mg/kg/injection, schedule: Q01DX009 (ip), vehicle: other) 102 % of control; (dose: 20.0 mg/kg/injection, schedule: Q01DX009 (ip), vehicle: other) 124 % of control; (dose: 40.0 mg/kg/injection, schedule: Q01DX009 (ip), vehicle: other) 123 % of control; (dose: 200.0 mg/kg/injection, schedule: Q01DX009 (ip), vehicle: other) 179 % of control.
On to `NC1=NC(=O)N2CC12` (stereo not given), for which the T/C runs as follows: under setting [5], 122 % of control; under setting [6], 153 % of control and 158 % of control; under setting [7], 100 % of control.
For the compound `C/C(=N\Nc1cccc2ccccc12)c1ccccn1`, the T/C is, setting by setting: under setting [8], 111 % of control; under setting [9], 103 % of control; under setting [10], 98 % of control.
For the compound `CC(=O)C(=CN(C)c1ccc([N+](=O)[O-])cc1)C(C)=O`, the T/C was 111 % of control under setting [11]; 92 % of control under setting [12]; 100 % of control under setting [1]; 91 % of control under setting [6]; 91 % of control under setting [7].
Take `CC(=O)OCC(OC(C)=O)C(Cl)CCl` (stereo not given): the T/C is 103 % of control (dose: 50.0 mg/kg/injection, schedule: Q01DX005 (ip), vehicle: saline); 101 % of control (dose: 100.0 mg/kg/injection, schedule: Q01DX005 (ip), vehicle: saline); 107 % of control (dose: 200.0 mg/kg/injection, schedule: Q01DX005 (ip), vehicle: saline).
Take `C(=C1/SC(c2ccccc2)=NC1c1ccccc1)/c1ccccc1` (stereo not given): the T/C runs as follows: under setting [2], 92 % of control; under setting [3], 88 % of control; (dose: 200.0 mg/kg/injection, schedule: Q01DX009 (ip), vehicle: saline with Tween-80) 96 % of control.
With `CS(=O)(=O)/C=C/c1cccnc1`, the T/C is 101 % of control under setting [13], 99 % of control under setting [14] and 103 % of control under setting [15].
In the case of `CS(=O)(=O)OCCN(CCOS(C)(=O)=O)c1ccccc1`, the T/C was 109 % of control (dose: 1.56 mg/kg/injection, schedule: Q04DX003 (ip), vehicle: saline); 104 % of control (dose: 3.13 mg/kg/injection, schedule: Q04DX003 (ip), vehicle: saline); 154 % of control under setting [11]; 122 % of control (dose: 6.25 mg/kg/injection, schedule: Q04DX003 (ip), vehicle: saline); 200 % of control under setting [12]; 181 % of control under setting [1]. The T/C runs as follows: under setting [4], 204 % of control; (dose: 25.0 mg/kg/injection, schedule: Q04DX003 (ip), vehicle: saline) 204 % of control; under setting [5], 90 % of control.
Turning to `O=[N+]([O-])c1ccc(-c2cnc3nc4[nH]c5ccccc5c4nn23)cc1`, the T/C (dose: 100.0 mg/kg/injection, schedule: Q01DX001 (ip), vehicle: saline with Tween-80) is 101 % of control; the T/C (dose: 200.0 mg/kg/injection, schedule: Q01DX001 (ip), vehicle: saline with Tween-80) was 92 % of control; the T/C (dose: 400.0 mg/kg/injection, schedule: Q01DX001 (ip), vehicle: saline with Tween-80) is 87 % of control.
As to `Cc1cc(C=C2C(=O)OC(C)(C)OC2=O)cc(C)c1O`, the T/C runs as follows: (dose: 50.0 mg/kg/injection, schedule: Q01DX005 (ip), vehicle: Klucel (hydroxypropylcellulose) (HPC)) 93 % of control; (dose: 100.0 mg/kg/injection, schedule: Q01DX005 (ip), vehicle: Klucel (hydroxypropylcellulose) (HPC)) 90 % of control; (dose: 200.0 mg/kg/injection, schedule: Q01DX005 (ip), vehicle: Klucel (hydroxypropylcellulose) (HPC)) 103 % of control.
Consider `Nc1cc(C(=O)Nc2ccc(C3=NCCN3)cc2)cc(C(=O)Nc2ccc(C3=NCCN3)cc2)c1`, for which the T/C (dose: 32.0 mg/kg/injection, schedule: Q01DX010 (ip), vehicle: saline) is 168 % of control.
For `CCN1C(NN)=NS(=O)(=O)c2ccccc21`, the T/C is 103 % of control under setting [16], 106 % of control under setting [17] and 94 % of control under setting [18].
Take `C=CC(C)(C)c1[nH]c2ccccc2c1CC1NC(=O)C(C)NC1=O` (stereo not given): the T/C was 86 % of control (dose: 12.5 mg/kg/injection, schedule: Q01DX009 (ip), vehicle: Klucel (hydroxypropylcellulose) (HPC)) and 92 % of control under setting [13].
`CCCN=C1NS(=O)(=O)c2ccccc21`: the T/C reads like this: under setting [8], 110 % of control; under setting [9], 98 % of control; under setting [10], 93 % of control.
`Cn1c(-c2ccccc2)c2c(c1-c1ccccc1)C(=O)c1ccccc1C2=O`: the T/C is 95 % of control under setting [13], 101 % of control under setting [14] and 100 % of control under setting [15].
For `Cn1cc(-c2ccc3c(c2)OCO3)c2ccccc21`, the T/C is, setting by setting: under setting [16], 100 % of control; under setting [17], 100 % of control; under setting [18], 101 % of control.
With `COc1ccc(Cc2cc(C(C)(C)C)c(O)c(C(C)(C)C)c2)cc1`, the T/C is, setting by setting: (dose: 50.0 mg/kg/injection, schedule: Q01DX005 (ip), vehicle: distilled water + alcohol) 104 % of control; (dose: 100.0 mg/kg/injection, schedule: Q01DX005 (ip), vehicle: distilled water + alcohol) 100 % of control; (dose: 200.0 mg/kg/injection, schedule: Q01DX005 (ip), vehicle: distilled water + alcohol) 93 % of control.
